“Also recorded” adds a separate entry of the source.
Columns and labels:
[1] = system: HIV-1-C recombinant virus stocks (pGEM-HIV-1-C-Δgprt-BstEII backbone); experiment: Antiviral drug susceptibility testing of recombinant virus stocks, subtype C GPRT amplicon in HIV-1 subtype C backbone, MT4-eGFP cells; format: cell-based; conditions: for effect of RAM M184V in RT on FC: subtype C backbone, Clone 3 of Sample 3, FC with vs without 184V, FIG. 4; for ratio FCsubtype B/FCsubtype C (fold change in IC50 vs wild-type): same subtype C GPRT amplicons in subtype B vs subtype C backbone, FIG. 3-E, ratio significantly different from 1 (p<0.05) for the listed drugs
Text: (§1) An HIV subtype C backbone was designed in silico. The complete genome (12 721 bp) was divided into 4 fragments which were chemically synthesized and subsequently joined together by traditional subcloning. Gag-protease-reverse-transcriptase (GPRT) fragments from 8 patient samples infected with subtype C HIV-1 were RT-PCR amplified. The 1.7 kb PCR fragment was cloned into the HIV-1-C backbone (deleted for GPRT) using In-Fusion reagents. Full-genome clones (N ranging from 1 to 5 per patient sample) were transfected in MT4-eGFP cells where cyto-pathogenic effect (CPE), p24 and Viral Load (VL) were monitored. The resulting HIV-1-C recombinant virus stocks (RVSs) were added to MT4-eGFP cells in the presence of serial dilutions of antiretroviral drugs (PI, NNRTI, N(t)RTI) to determine the fold-change in IC50 compared to the IC50 of wild-type HIV-1 virus. Additionally, viral RNA was extracted from the HIV-1-C RVSs and submitted to an RT-PCR. The resulting GPRT amplicons were recombined into a subtype B backbone and phenotyped as described above, allowing the comparison of GPRT resistance profiles in the two backbones.
(§2) 5. Antiviral Drug Susceptibility Testing of Virus Stocks Generated with the pGEM-HIV-1-C-Δgprt-BstEII vs. the pGEM-HXB2-Δgprt-BstEII Backbone but Carrying Identical GPRT Fragments.
(§3) Fold-change values were calculated by dividing the IC50 values of the virus stocks harboring Resistance Associated Mutations (RAMs) by the IC50 values of the corresponding backbone with wild-type amplicon.

[2] = system: recombinant virus stocks with subtype C GPRT in pGEM-HXB2-Δgprt-BstEII (subtype B) backbone; experiment: Antiviral drug susceptibility testing of recombinant virus stocks, subtype C GPRT amplicon in HIV-1 subtype B backbone, MT4-eGFP cells; format: cell-based; conditions: Clone 3 of Sample 3, FC with vs without 184V, FIG. 4
Text: as §1
In contrast to the In-Fusion strategy for the subtype C backbone, a homologous recombination event strategy was used for the subtype B backbone to generate infectious virus. Here the BstEII-linearized pGEM-HXB2Δgprt-BstEII backbone was co-transfected with the 1.8 kb GPRT fragment in an MT4 cell line, resulting in a full-genome infectious virus.
as §2, §3

Row | SMILES | effect of RAM M184V in RT on FC [1] | effect of RAM M184V in RT on FC [2] | ratio FCsubtype B/FCsubtype C (fold change in IC50 vs wild-type) [1]
1 | Nc1nc(NC2CC2)c2ncn([C@H]3C=C[C@@H](CO)C3)c2n1 [ABC] | not significantly affected | not significantly affected | 
2 | Cc1cn([C@H]2C[C@H](N=[N+]=[N-])[C@@H](CO)O2)c(=O)[nH]c1=O [AZT] | re-sensitizing effects; also recorded: decreases the FC | re-sensitizing effects; also recorded: decreases the FC | 
3 | Cc1cc(C#N)cc(C)c1Oc1nc(Nc2ccc(C#N)cc2)nc(N)c1Br [ETR, etravirine] |  |  | 0.67
4 | Nc1nc(=O)n([C@@H]2CS[C@H](CO)O2)cc1F [FTC, emtricitabine] | increase in FC | increase in FC | 0.50
5 | CC(C)OC(=O)OCOP(=O)(CO[C@H](C)Cn1cnc2c(N)ncnc21)OCOC(=O)OC(C)C.O=C(O)/C=C/C(=O)O [TDF] | decreases the FC | decreases the FC | 
6 | Cc1cn([C@H]2C=C[C@@H](CO)O2)c(=O)[nH]c1=O [d4T] | decreases the FC | decreases the FC | 
7 | CC(C)CN(C[C@@H](O)[C@H](Cc1ccccc1)NC(=O)O[C@H]1CO[C@H]2OCC[C@H]21)S(=O)(=O)c1ccc(N)cc1 [darunavir] |  |  | 1.78
8 | O=c1[nH]cnc2c1ncn2[C@H]1CC[C@@H](CO)O1 [ddI, didanosine] | not significantly affected | not significantly affected | 
9 | Cc1cccc(C)c1OCC(=O)N[C@@H](Cc1ccccc1)[C@@H](O)C[C@H](Cc1ccccc1)NC(=O)[C@H](C(C)C)N1CCCNC1=O [lopinavir] |  |  | 1.86
10 | Cc1ccnc2c1NC(=O)c1cccnc1N2C1CC1 [nevirapine] |  |  | 1.61
